In one experiment the target is T1, GRK5 (Homo sapiens, UniProt P34947).
T1 construct: purchased Thermo Scientific
As to the kind of experiment: Lance Kinase Activity Assay, GRK5. The following applies: biochemical Lance kinase activity assay; class symbols A-F; read-out: GRK5 LANCE Assay (IC-50). Summed up: (§1)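 IC50s from sigmoidal dose-response over 0.0025-10 μM compound, with phosphorylated ULight substrate detected by Eu anti-phospho antibody FRET after EDTA quench.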
In general terms: TR-FRET usually uses a lanthanide donor and a delayed reading to cut background.

The target in the next experiment is T2, GRK2 (Homo sapiens, UniProt P25098).
T2 construct: purchased Thermo Scientific
T2 sequence (P25098 1-689): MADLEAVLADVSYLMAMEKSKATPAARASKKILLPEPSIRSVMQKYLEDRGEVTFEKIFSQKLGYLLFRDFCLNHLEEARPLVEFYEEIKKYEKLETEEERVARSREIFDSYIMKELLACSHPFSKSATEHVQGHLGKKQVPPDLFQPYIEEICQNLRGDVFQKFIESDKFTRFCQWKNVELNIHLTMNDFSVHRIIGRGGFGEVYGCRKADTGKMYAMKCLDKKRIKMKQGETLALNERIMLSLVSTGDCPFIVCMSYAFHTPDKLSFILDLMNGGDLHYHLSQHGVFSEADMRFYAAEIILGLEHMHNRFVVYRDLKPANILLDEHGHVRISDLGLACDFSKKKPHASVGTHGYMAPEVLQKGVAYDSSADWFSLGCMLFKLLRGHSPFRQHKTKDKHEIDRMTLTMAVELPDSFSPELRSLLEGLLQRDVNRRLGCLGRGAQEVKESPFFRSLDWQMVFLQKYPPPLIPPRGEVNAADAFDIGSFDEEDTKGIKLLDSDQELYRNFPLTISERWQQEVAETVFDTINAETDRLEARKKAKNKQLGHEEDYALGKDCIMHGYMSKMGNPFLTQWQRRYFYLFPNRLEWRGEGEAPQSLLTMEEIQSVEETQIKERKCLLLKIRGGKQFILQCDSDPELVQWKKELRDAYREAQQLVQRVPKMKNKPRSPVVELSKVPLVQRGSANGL
In words: Lance Kinase Activity Assay, GRK2. The following applies: biochemical Lance kinase activity assay; class symbols A-F; read-out: GRK2 LANCE Assay (IC-50). Summed up: as §1

A value given as a limit tells only on which side of the number the result lay.

T1 sequence (P34947 whole entry): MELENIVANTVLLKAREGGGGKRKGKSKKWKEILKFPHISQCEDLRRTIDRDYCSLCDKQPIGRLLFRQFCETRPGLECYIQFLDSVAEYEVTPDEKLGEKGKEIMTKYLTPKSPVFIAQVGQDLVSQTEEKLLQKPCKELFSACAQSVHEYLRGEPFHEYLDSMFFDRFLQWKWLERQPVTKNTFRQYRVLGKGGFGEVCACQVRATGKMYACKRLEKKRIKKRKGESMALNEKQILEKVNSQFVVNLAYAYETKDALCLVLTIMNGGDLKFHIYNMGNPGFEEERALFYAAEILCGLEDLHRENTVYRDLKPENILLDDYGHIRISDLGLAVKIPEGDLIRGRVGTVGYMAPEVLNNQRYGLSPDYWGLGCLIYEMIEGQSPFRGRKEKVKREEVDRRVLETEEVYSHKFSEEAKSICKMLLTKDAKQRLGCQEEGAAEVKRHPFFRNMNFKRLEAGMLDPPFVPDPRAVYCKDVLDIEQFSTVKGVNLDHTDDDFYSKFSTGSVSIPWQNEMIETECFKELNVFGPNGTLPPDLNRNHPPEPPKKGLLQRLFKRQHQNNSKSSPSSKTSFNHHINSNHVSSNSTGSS

For `COc1ccc([C@@H](C)NC(=O)/C=C/c2c[nH]c3nccc(-c4cccc(C(N)=O)c4)c23)cc1OC` [Example 233, (R,E)-3-(3-(3-((1-(3,4-dimethoxyphenyl)ethyl)amino)-3-oxoprop-1-en-1-yl)-1H-pyrrolo[2,3-b]pyridin-4-yl)benzamide], the IC50 lay in the range of 50 to 100 nM at GRK5 and 1000 to 10000 nM on GRK2.

`COc1ccc([C@@H](C)NC(=O)/C=C/c2c[nH]c3ncc(-c4cncnc4)cc23)cc1OC` [Example 207, (R,E)-N-(1-(3,4-dimethoxyphenyl)ethyl)-3-(5-(pyrimidin-5-yl)-1H-pyrrolo[2,3-b]pyridin-3-yl)acrylamide]: the IC50 at GRK5 was 500 to 1000 nM; at GRK2, more than 10000 nM.

As for `COc1ccc([C@@H](C)NC(=O)/C(C#N)=C/c2c[nH]c3ncc(-c4cn(C)cn4)cc23)cc1OC` [Example 166, (R,E)-2-cyano-N-(1-(3,4-dimethoxyphenyl)ethyl)-3-(5-(1-methyl-1H-imidazol-4-yl)-1H-pyrrolo[2,3-b]pyridin-3-yl)acrylamide], the IC50 is not above 50 nM at GRK5 and 1000 to 10000 nM at GRK2.

As for `COc1ccc([C@@H](C)NC(=O)/C(C#N)=C/c2c[nH]c3ncc(OC(C)C)cc23)cc1OC` [Example 102, (R,E)-2-cyano-N-(1-(3,4-dimethoxyphenyl)ethyl)-3-(5-isopropoxy-1H-pyrrolo[2,3-b]pyridin-3-yl)acrylamide], the figures for the IC50 on GRK5 and on GRK2 were not above 50 nM and more than 10000 nM, respectively.

With `COc1ccc([C@@H](C)NC(=O)/C(C#N)=C/c2c[nH]c3ncc(-c4ccc(N5CCN(C)CC5)cc4OC)cc23)cc1OC` [Example 153], the IC50 at GRK5 was not above 50 nM; at GRK2 it was 500 to 1000 nM.

For the compound `COc1ccc([C@@H](C)NC(=O)/C=C/c2c[nH]c3ncc(-c4ccc(CN(C)C)cc4)cc23)cc1OC` [Example 184], the IC50 at GRK5 was 50 to 100 nM; at GRK2, more than 10000 nM.

For the compound `COc1ccc([C@@H](C)NC(=O)/C(C#N)=C/c2c[nH]c3nccc(-c4cccc(CN(C)C)c4)c23)cc1OC` [Example 176, (R,E)-2-cyano-N-(1-(3,4-dimethoxyphenyl)ethyl)-3-(4-(3-((dimethylamino)methyl)phenyl)-1H-pyrrolo[2,3-b]pyridin-3-yl)acrylamide], the IC50 at GRK5 is not above 50 nM; at GRK2, 1000 to 10000 nM.

`COc1ccc([C@@H](C)NC(=O)/C(C#N)=C/c2c[nH]c3ncc(Br)cc23)cc1OC` [Example 80, (R,E)-3-(5-bromo-1H-pyrrolo[2,3-b]pyridin-3-yl)-2-cyano-N-(1-(3,4-dimethoxyphenyl)ethyl)acrylamide]: the IC50 on GRK5 was 50 to 100 nM; on GRK2 it was more than 10000 nM.

`C[C@@H](NC(=O)/C(C#N)=C/c1c[nH]c2ncc(-c3cnn(C)c3)cc12)c1ccccc1` [Example 91, (R,E)-2-cyano-3-(5-(1-methyl-1H-pyrazol-4-yl)-1H-pyrrolo[2,3-b]pyridin-3-yl)-N-(1-phenylethyl)acrylamide]: the IC50 at GRK5 is not above 50 nM; on GRK2, 100 to 500 nM.

As for `CC[C@H](C)Oc1cnc2[nH]cc(/C=C(\C#N)C(=O)N[C@H](C)c3ccc(OC)c(OC)c3)c2c1` [Example 109, (E)-3-(5-((S)-sec-butoxy)-1H-pyrrolo[2,3-b]pyridin-3-yl)-2-cyano-N-((R)-1-(3,4-dimethoxyphenyl)ethyl)acrylamide], the values for the IC50 at GRK5 and on GRK2 were not above 50 nM and more than 10000 nM, respectively.

As to `N#C/C(=C\c1c[nH]c2ncccc12)C(=O)NCc1ccc(F)cc1F` [Example 65, (E)-2-cyano-N-(2,4-difluorobenzyl)-3-(1H-pyrrolo[2,3-b]pyridin-3-yl)acrylamide], the IC50 at GRK5 and on GRK2 was 1000 to 10000 nM in each case.

Turning to `COc1ccc([C@@H](C)NC(=O)/C(C#N)=C/c2c[nH]c3ncc(C(=O)N4CCN(C)CC4)cc23)cc1OC` [Example 83, (R,E)-2-cyano-N-(1-(3,4-dimethoxyphenyl)ethyl)-3-(5-(4-methylpiperazine-1-carbonyl)-1H-pyrrolo[2,3-b]pyridin-3-yl)acrylamide], the IC50 on GRK5 is 100 to 500 nM; at GRK2 it was more than 10000 nM.

`N#C/C(=C\c1c[nH]c2ncc(Cl)cc12)C(=O)NCc1ccccc1Cl` [Example 74, (E)-3-(5-chloro-1H-pyrrolo[2,3-b]pyridin-3-yl)-N-(2-chlorobenzyl)-2-cyanoacrylamide]: the IC50 is 1000 to 10000 nM on GRK5 and more than 10000 nM at GRK2.

In the case of `COc1ccc([C@@H](C)NC(=O)/C(C#N)=C/c2c[nH]c3ncc(OC4CCOC4)cc23)cc1OC` (stereo partly drawn) [Example 103, (E)-2-cyano-N-((R)-1-(3,4-dimethoxyphenyl)ethyl)-3-(5-((tetrahydrofuran-3-yl)oxy)-1H-pyrrolo[2,3-b]pyridin-3-yl)acrylamide], the IC50 on GRK5 was not above 50 nM; at GRK2 it was 1000 to 10000 nM.

Turning to `COc1ccc([C@@H](C)NC(=O)/C=C/c2c[nH]c3ncc(Br)cc23)cc1OC` [Example 11, (R,E)-3-(5-bromo-1H-pyrrolo[2,3-b]pyridin-3-yl)-N-(1-(3,4-dimethoxyphenyl)ethyl)acrylamide], the IC50 at GRK5 is not above 50 nM; on GRK2 it was 1000 to 10000 nM.

`N#C/C(=C\c1c[nH]c2ncc(Cl)cc12)C(=O)NCc1cc(F)cc(F)c1` [Example 75, (E)-3-(5-chloro-1H-pyrrolo[2,3-b]pyridin-3-yl)-2-cyano-N-(3,5-difluorobenzyl)acrylamide]: the results for the IC50 on GRK5 and at GRK2 were 1000 to 10000 nM and more than 10000 nM, respectively.

Regarding `COc1ccc([C@@H](C)NC(=O)/C=C/c2c[nH]c3ncc(-c4ccc(OCCN(C)C)cc4)cc23)cc1OC` [Example 197, (R,E)-N-(1-(3,4-dimethoxyphenyl)ethyl)-3-(5-(4-(2-(dimethylamino)ethoxy)phenyl)-1H-pyrrolo[2,3-b]pyridin-3-yl)acrylamide], the IC50 is not above 50 nM on GRK5 and 500 to 1000 nM on GRK2.

For `COc1ccc([C@@H](C)NC(=O)/C(C#N)=C/c2c[nH]c3ncc(-c4cccc(S(C)(=O)=O)c4)cc23)cc1OC` [Example 125], the IC50 is not above 50 nM at GRK5 and more than 10000 nM at GRK2.

On to `COc1ccc([C@@H](C)NC(=O)/C=C/c2c[nH]c3ncc(OC4CCS(=O)(=O)CC4)cc23)cc1OC` [Example 55, (R,E)-N-(1-(3,4-dimethoxyphenyl)ethyl)-3-(5-((1,1-dioxidotetrahydro-2H-thiopyran-4-yl)oxy)-1H-pyrrolo[2,3-b]pyridin-3-yl)acrylamide], for which the IC50 at GRK5 was not above 50 nM; at GRK2, more than 10000 nM.

For the compound `COc1ccc([C@@H](C)NC(=O)/C=C/c2c[nH]c3ncc(-c4ccc(C5CCN(C)CC5)cc4)cc23)cc1OC` [Example 196, (R,E)-N-(1-(3,4-dimethoxyphenyl)ethyl)-3-(5-(4-(1-methylpiperidin-4-yl)phenyl)-1H-pyrrolo[2,3-b]pyridin-3-yl)acrylamide], the IC50 is not above 50 nM at GRK5 and 100 to 500 nM at GRK2.

As for `COc1ccc(C(CCN(C)C)NC(=O)/C(C#N)=C/c2c[nH]c3ncccc23)cc1` (stereo not shown) [Example 51, (E)-2-cyano-N-(3-(dimethylamino)-1-(4-methoxyphenyl)propyl)-3-(1H-pyrrolo[2,3-b]pyridin-3-yl)acrylamide], the IC50 was not above 50 nM at GRK5 and 500 to 1000 nM on GRK2.

Consider `CN(C)c1cccc(CNC(=O)/C(C#N)=C/c2c[nH]c3ncccc23)c1` [Example 30, (E)-2-cyano-N-(3-(dimethylamino)benzyl)-3-(1H-pyrrolo[2,3-b]pyridin-3-yl)acrylamide], for which the values for the IC50 on GRK5 and at GRK2 were 1000 to 10000 nM and more than 10000 nM, respectively.

As to `COc1ccc([C@@H](C)NC(=O)/C=C/c2c[nH]c3nccc(-c4ccc(C(N)=O)cc4)c23)cc1OC` [Example 236, (R,E)-4-(3-(3-((1-(3,4-dimethoxyphenyl)ethyl)amino)-3-oxoprop-1-en-1-yl)-1H-pyrrolo[2,3-b]pyridin-4-yl)benzamide], the results for the IC50 on GRK5 and on GRK2 were 100 to 500 nM and more than 10000 nM, respectively.

In the case of `COc1ccc([C@@H](CO)NC(=O)/C=C/c2c[nH]c3ncc(C)cc23)cc1OC` [Example 53, (S,E)-N-(1-(3,4-dimethoxyphenyl)-2-hydroxyethyl)-3-(5-methyl-1H-pyrrolo[2,3-b]pyridin-3-yl)acrylamide], the results for the IC50 on GRK5 and on GRK2 were not above 50 nM and 1000 to 10000 nM, respectively.

For `COc1ccc([C@@H](C)NC(=O)/C(C#N)=C/c2c[nH]c3ncc(-c4cnn(CCN5CCOCC5)c4)cc23)cc1OC` [Example 160], the IC50 on GRK5 is not above 50 nM; on GRK2, 1000 to 10000 nM.

`C[C@@H](NC(=O)/C(C#N)=C/c1c[nH]c2ncc(-c3cnn(C)c3)cc12)c1ccc(Cl)cc1` [Example 95, (R,E)-N-(1-(4-chlorophenyl)ethyl)-2-cyano-3-(5-(1-methyl-1H-pyrazol-4-yl)-1H-pyrrolo[2,3-b]pyridin-3-yl)acrylamide]: the figures for the IC50 at GRK5 and at GRK2 were 50 to 100 nM and 1000 to 10000 nM, respectively.

(Values after patent publication US20240294522A1 (Lead Discovery Center GmbH, priority 2021, published 2024).)
